{"source": "the NIST ThermoML archive (doi:10.1021/je900260g)", "assay": "mn = molality of the nth substance listed, in mol/kg", "settings": "101 kPa, Liquid", "note": "± gives the expanded uncertainty stated by the source.", "data": [{"compound": "NC(CO)(CO)CO", "note": "[2-amino-2-(hydroxymethyl)-1,3-propanediol] + O", "values": [{"measurement": "mass density", "setting": "298.15 K, m1 = 1.667", "value": "1043.81 ± 1.5", "unit": "kg/m3"}, {"measurement": "mass density", "setting": "298.15 K, m1 = 2.294", "value": "1053.88 ± 1.7", "unit": "kg/m3"}, {"measurement": "mass density", "setting": "298.15 K, m1 = 2.945", "value": "1065.01 ± 1.8", "unit": "kg/m3"}, {"measurement": "mass density", "setting": "298.15 K, m1 = 3.66", "value": "1077.08 ± 2", "unit": "kg/m3"}, {"measurement": "mass density", "setting": "298.15 K, m1 = 4.271", "value": "1086.34 ± 2.1", "unit": "kg/m3"}, {"measurement": "mass density", "setting": "298.15 K, m1 = 4.908", "value": "1098.03 ± 2.2", "unit": "kg/m3"}, {"measurement": "mass density", "setting": "298.15 K, m1 = 5.586", "value": "1106.97 ± 2.3", "unit": "kg/m3"}, {"measurement": "mass density", "setting": "303.15 K, m1 = 1.667", "value": "1042.04 ± 1.5", "unit": "kg/m3"}, {"measurement": "mass density", "setting": "303.15 K, m1 = 2.294", "value": "1052.01 ± 1.6", "unit": "kg/m3"}, {"measurement": "mass density", "setting": "303.15 K, m1 = 2.945", "value": "1063.04 ± 1.8", "unit": "kg/m3"}, {"measurement": "mass density", "setting": "303.15 K, m1 = 3.66", "value": "1075.01 ± 1.9", "unit": "kg/m3"}, {"measurement": "mass density", "setting": "303.15 K, m1 = 4.271", "value": "1084.19 ± 2", "unit": "kg/m3"}, {"measurement": "mass density", "setting": "303.15 K, m1 = 4.908", "value": "1095.81 ± 2.2", "unit": "kg/m3"}, {"measurement": "mass density", "setting": "303.15 K, m1 = 5.586", "value": "1104.68 ± 2.3", "unit": "kg/m3"}, {"measurement": "mass density", "setting": "310.15 K, m1 = 1.667", "value": "1039.3 ± 1.5", "unit": "kg/m3"}, {"measurement": "mass density", "setting": "310.15 K, m1 = 2.294", "value": "1049.14 ± 1.6", "unit": "kg/m3"}, {"measurement": "mass density", "setting": "310.15 K, m1 = 2.945", "value": "1060.05 ± 1.8", "unit": "kg/m3"}, {"measurement": "mass density", "setting": "310.15 K, m1 = 3.66", "value": "1071.88 ± 1.9", "unit": "kg/m3"}, {"measurement": "mass density", "setting": "310.15 K, m1 = 4.271", "value": "1080.98 ± 2", "unit": "kg/m3"}, {"measurement": "mass density", "setting": "310.15 K, m1 = 4.908", "value": "1092.51 ± 2.1", "unit": "kg/m3"}, {"measurement": "mass density", "setting": "310.15 K, m1 = 5.586", "value": "1101.29 ± 2.3", "unit": "kg/m3"}, {"measurement": "mass density", "setting": "318.15 K, m1 = 1.667", "value": "1035.79 ± 1.4", "unit": "kg/m3"}, {"measurement": "mass density", "setting": "318.15 K, m1 = 2.294", "value": "1045.51 ± 1.6", "unit": "kg/m3"}, {"measurement": "mass density", "setting": "318.15 K, m1 = 2.945", "value": "1056.29 ± 1.7", "unit": "kg/m3"}, {"measurement": "mass density", "setting": "318.15 K, m1 = 3.66", "value": "1068.02 ± 1.9", "unit": "kg/m3"}, {"measurement": "mass density", "setting": "318.15 K, m1 = 4.271", "value": "1077.02 ± 2", "unit": "kg/m3"}, {"measurement": "mass density", "setting": "318.15 K, m1 = 4.908", "value": "1088.46 ± 2.1", "unit": "kg/m3"}, {"measurement": "mass density", "setting": "318.15 K, m1 = 5.586", "value": "1097.18 ± 2.2", "unit": "kg/m3"}, {"measurement": "mass density", "setting": "323.15 K, m1 = 1.667", "value": "1033.4 ± 1.4", "unit": "kg/m3"}, {"measurement": "mass density", "setting": "323.15 K, m1 = 2.294", "value": "1043.01 ± 1.5", "unit": "kg/m3"}, {"measurement": "mass density", "setting": "323.15 K, m1 = 2.945", "value": "1053.79 ± 1.7", "unit": "kg/m3"}, {"measurement": "mass density", "setting": "323.15 K, m1 = 3.66", "value": "1065.43 ± 1.8", "unit": "kg/m3"}, {"measurement": "mass density", "setting": "323.15 K, m1 = 4.271", "value": "1074.4 ± 1.9", "unit": "kg/m3"}, {"measurement": "mass density", "setting": "323.15 K, m1 = 4.908", "value": "1085.8 ± 2.1", "unit": "kg/m3"}, {"measurement": "mass density", "setting": "323.15 K, m1 = 5.586", "value": "1094.46 ± 2.2", "unit": "kg/m3"}, {"measurement": "mass density", "setting": "328.15 K, m1 = 1.667", "value": "1030.82 ± 1.4", "unit": "kg/m3"}, {"measurement": "mass density", "setting": "328.15 K, m1 = 2.294", "value": "1039.97 ± 1.5", "unit": "kg/m3"}, {"measurement": "mass density", "setting": "328.15 K, m1 = 2.945", "value": "1051.16 ± 1.6", "unit": "kg/m3"}, {"measurement": "mass density", "setting": "328.15 K, m1 = 3.66", "value": "1062.67 ± 1.8", "unit": "kg/m3"}, {"measurement": "mass density", "setting": "328.15 K, m1 = 4.271", "value": "1071.63 ± 1.9", "unit": "kg/m3"}, {"measurement": "mass density", "setting": "328.15 K, m1 = 4.908", "value": "1083.04 ± 2", "unit": "kg/m3"}, {"measurement": "mass density", "setting": "328.15 K, m1 = 5.586", "value": "1091.67 ± 2.1", "unit": "kg/m3"}]}, {"compound": "O=S(=O)(O)CCCCNC(CO)(CO)CO", "note": "[N-tris(Hydroxymethyl)methyl-4-aminobutanesulfonic acid] + O", "values": [{"measurement": "mass density", "setting": "298.15 K, m1 = 0.9378", "value": "1067.23 ± 0.94", "unit": "kg/m3"}, {"measurement": "mass density", "setting": "298.15 K, m1 = 1.552", "value": "1100.73 ± 1.2", "unit": "kg/m3"}, {"measurement": "mass density", "setting": "298.15 K, m1 = 2.487", "value": "1143.55 ± 1.4", "unit": "kg/m3"}, {"measurement": "mass density", "setting": "298.15 K, m1 = 4.08", "value": "1200.45 ± 1.8", "unit": "kg/m3"}, {"measurement": "mass density", "setting": "298.15 K, m1 = 4.796", "value": "1218.48 ± 2", "unit": "kg/m3"}, {"measurement": "mass density", "setting": "298.15 K, m1 = 5.154", "value": "1228.57 ± 2", "unit": "kg/m3"}, {"measurement": "mass density", "setting": "298.15 K, m1 = 5.549", "value": "1235.88 ± 2.1", "unit": "kg/m3"}, {"measurement": "mass density", "setting": "303.15 K, m1 = 0.9378", "value": "1065.48 ± 0.92", "unit": "kg/m3"}, {"measurement": "mass density", "setting": "303.15 K, m1 = 1.552", "value": "1098.86 ± 1.1", "unit": "kg/m3"}, {"measurement": "mass density", "setting": "303.15 K, m1 = 2.487", "value": "1141.42 ± 1.4", "unit": "kg/m3"}, {"measurement": "mass density", "setting": "303.15 K, m1 = 4.08", "value": "1198.12 ± 1.8", "unit": "kg/m3"}, {"measurement": "mass density", "setting": "303.15 K, m1 = 4.796", "value": "1216.1 ± 1.9", "unit": "kg/m3"}, {"measurement": "mass density", "setting": "303.15 K, m1 = 5.154", "value": "1226.17 ± 2", "unit": "kg/m3"}, {"measurement": "mass density", "setting": "303.15 K, m1 = 5.549", "value": "1233.46 ± 2.1", "unit": "kg/m3"}, {"measurement": "mass density", "setting": "310.15 K, m1 = 0.9378", "value": "1062.76 ± 0.91", "unit": "kg/m3"}, {"measurement": "mass density", "setting": "310.15 K, m1 = 1.552", "value": "1095.93 ± 1.1", "unit": "kg/m3"}, {"measurement": "mass density", "setting": "310.15 K, m1 = 2.487", "value": "1138.29 ± 1.4", "unit": "kg/m3"}, {"measurement": "mass density", "setting": "310.15 K, m1 = 4.08", "value": "1194.76 ± 1.8", "unit": "kg/m3"}, {"measurement": "mass density", "setting": "310.15 K, m1 = 4.796", "value": "1212.71 ± 1.9", "unit": "kg/m3"}, {"measurement": "mass density", "setting": "310.15 K, m1 = 5.154", "value": "1222.74 ± 2", "unit": "kg/m3"}, {"measurement": "mass density", "setting": "310.15 K, m1 = 5.549", "value": "1229.98 ± 2", "unit": "kg/m3"}, {"measurement": "mass density", "setting": "318.15 K, m1 = 0.9378", "value": "1059.29 ± 0.89", "unit": "kg/m3"}, {"measurement": "mass density", "setting": "318.15 K, m1 = 1.552", "value": "1092.31 ± 1.1", "unit": "kg/m3"}, {"measurement": "mass density", "setting": "318.15 K, m1 = 2.487", "value": "1134.48 ± 1.4", "unit": "kg/m3"}, {"measurement": "mass density", "setting": "318.15 K, m1 = 4.08", "value": "1190.76 ± 1.8", "unit": "kg/m3"}, {"measurement": "mass density", "setting": "318.15 K, m1 = 4.796", "value": "1208.68 ± 1.9", "unit": "kg/m3"}, {"measurement": "mass density", "setting": "318.15 K, m1 = 5.154", "value": "1218.68 ± 2", "unit": "kg/m3"}, {"measurement": "mass density", "setting": "318.15 K, m1 = 5.549", "value": "1225.89 ± 2", "unit": "kg/m3"}, {"measurement": "mass density", "setting": "323.15 K, m1 = 0.9378", "value": "1056.9 ± 0.87", "unit": "kg/m3"}, {"measurement": "mass density", "setting": "323.15 K, m1 = 1.552", "value": "1089.87 ± 1.1", "unit": "kg/m3"}, {"measurement": "mass density", "setting": "323.15 K, m1 = 2.487", "value": "1131.99 ± 1.4", "unit": "kg/m3"}, {"measurement": "mass density", "setting": "323.15 K, m1 = 4.08", "value": "1188.17 ± 1.8", "unit": "kg/m3"}, {"measurement": "mass density", "setting": "323.15 K, m1 = 4.796", "value": "1206.07 ± 1.9", "unit": "kg/m3"}, {"measurement": "mass density", "setting": "323.15 K, m1 = 5.154", "value": "1216.06 ± 2", "unit": "kg/m3"}, {"measurement": "mass density", "setting": "323.15 K, m1 = 5.549", "value": "1223.25 ± 2", "unit": "kg/m3"}, {"measurement": "mass density", "setting": "328.15 K, m1 = 0.9378", "value": "1054.08 ± 0.85", "unit": "kg/m3"}, {"measurement": "mass density", "setting": "328.15 K, m1 = 1.552", "value": "1086.99 ± 1.1", "unit": "kg/m3"}, {"measurement": "mass density", "setting": "328.15 K, m1 = 2.487", "value": "1129.4 ± 1.4", "unit": "kg/m3"}, {"measurement": "mass density", "setting": "328.15 K, m1 = 4.08", "value": "1185.52 ± 1.8", "unit": "kg/m3"}, {"measurement": "mass density", "setting": "328.15 K, m1 = 4.796", "value": "1203.41 ± 1.9", "unit": "kg/m3"}, {"measurement": "mass density", "setting": "328.15 K, m1 = 5.154", "value": "1213.41 ± 1.9", "unit": "kg/m3"}, {"measurement": "mass density", "setting": "328.15 K, m1 = 5.549", "value": "1220.58 ± 2", "unit": "kg/m3"}]}]}
